Values after ≈ are worked out from the molar mass of the structure shown.
Experiments:
[1] = test system: Escherichia coli (E. coli) BAS849; assay: Antibacterial activity, microbroth dilution MIC (Table 1); assay type: cell-based; details: microbroth dilution, super sensitive Gram-negative E. coli BAS849, read-out: MIC, BAS849
In short: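 Each strain is exposed to test compound in a microbroth dilution series; visible growth is scored macroscopically, and the lowest growth-free concentration is recorded as MIC in μg/mL.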

[2] = test system: Staphylococcus aureus (S. aureus) 29213; assay: as above; assay type: cell-based; details: microbroth dilution, Gram-positive S. aureus 29213, read-out: MIC, 29213
In short: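 Broth microdilution; endpoint = no macroscopic growth; value = lowest inhibiting concn, μg/mL.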

[3] = test system: E. coli 25922; assay: as above; assay type: cell-based, Escherichia coli; details: Escherichia coli; microbroth dilution; control Gram-negative E. coli 25922 strain; read-out: MIC, 25922
In short: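 Potency is reported as minimum inhibitory concentration in μg/mL, determined by broth microdilution as the lowest level of compound that stops growth visible to the eye.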

[4] = test system: E. coli LZ3111; assay: Antibacterial activity, MIC, quinolone resistant strain (Table 2); assay type: cell-based; details: Escherichia coli, LZ3111, read-out: MIC LZ3111
In short: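 Microbroth dilution method; MIC (μg/mL) is the lowest drug concentration preventing macroscopically visible growth under test conditions.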

[5] = test system: Acinetobacter baumannii (A. baumannii) BAA747; assay: Antibacterial activity, MIC (Table 4); assay type: cell-based; details: A. baumannii BAA747, read-out: MIC, BAA747
In short: (§1)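 The resistant panel comprises multi-drug resistant clinical isolates. All strains were tested by microbroth dilution, with the MIC in μg/mL taken as the lowest concentration that prevented macroscopically visible growth.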

[6] = test system: Klebsiella pneumoniae (K. pneumoniae) 35657; assay: Antibacterial activity, MIC (Table 4); assay type: cell-based; details: K. pneumoniae 35657, read-out: MIC, 35657
In short: as §1

[7] = test system: A. baumannii MXX2240; assay: Antibacterial activity, MIC, resistant strain (Table 4); assay type: cell-based; details: Acinetobacter baumannii, MXX2240; resistant A. baumannii MMX2240, multi-drug resistant clinical isolate; read-out: MIC, MMX2240
In short: as §1

[8] = test system: K. pneumoniae MXX1232; assay: as above; assay type: cell-based; details: Klebsiella pneumoniae, MXX1232; resistant K. pneumoniae MMX1232, multi-drug resistant clinical isolate; read-out: MIC, MMX1232
In short: as §1

[9] = test system: Pseudomonas aeruginosa (P. aeruginosa) 27853; assay: Antibacterial activity, MIC (Table 5); assay type: cell-based; details: P. aeruginosa 27853, read-out: MIC, 27853
In short: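 Activity was measured by microbroth dilution. The MIC, in μg/mL, is the lowest drug concentration that prevents macroscopically visible growth under the test conditions.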

Row | SMILES | MIC [1] [µg/mL] | MIC [2] [µg/mL] | MIC [3] [µg/mL] | MIC [4] [µg/mL] | MIC [5] [µg/mL] | MIC [6] [µg/mL] | MIC [7] [µg/mL] | MIC [8] [µg/mL] | MIC [9] [µg/mL]
1 | Cc1c(-c2ccc3c(c2)cc(CNC(C)(C)C)n3C)[nH]c(=O)c(C(=O)O)c1O [Cpd 351, 6-(2-((tert-butylamino)methyl)-1-methyl-1H-indol-5-yl)-4-hydroxy-5-methyl-2-oxo-1,2-dihydropyridine-3-carboxylic acid] | < 1 | 12.5 to 150 (≈ 32.6 to 391 µM) | 1 to 3.5 (≈ 2.61 to 9.13 µM) | 3.5 to 12.5 (≈ 9.13 to 32.6 µM) | < 1 | 1 to 3.5 (≈ 2.61 to 9.13 µM) | 1 to 3.5 (≈ 2.61 to 9.13 µM) | 12.5 to 150 (≈ 32.6 to 391 µM) | 12.5 to 150 (≈ 32.6 to 391 µM)
2 | CCCNCc1cc2cc(-c3[nH]c(=O)c(C(=O)O)c(O)c3C)ccc2n1C [Cpd 352, 4-hydroxy-5-methyl-6-(1-methyl-2-((propylamino)methyl)-1H-indol-5-yl)-2-oxo-1,2-dihydropyridine-3-carboxylic acid] | < 1 | 12.5 to 150 (≈ 33.8 to 406 µM) | 3.5 to 12.5 (≈ 9.47 to 33.8 µM) | < 1 | 3.5 to 12.5 (≈ 9.47 to 33.8 µM) | 1 to 3.5 (≈ 2.71 to 9.47 µM) | 1 to 3.5 (≈ 2.71 to 9.47 µM) | 12.5 to 150 (≈ 33.8 to 406 µM) | 12.5 to 150 (≈ 33.8 to 406 µM)
3 | Cc1c(-c2ccc3c(c2)cc(CNCC(C)C)n3C)[nH]c(=O)c(C(=O)O)c1O [Cpd 353, 4-hydroxy-6-(2-((isobutylamino)methyl)-1-methyl-1H-indol-5-yl)-5-methyl-2-oxo-1,2-dihydropyridine-3-carboxylic acid] | < 1 | 12.5 to 150 (≈ 32.6 to 391 µM) | 3.5 to 12.5 (≈ 9.13 to 32.6 µM) | 1 to 3.5 (≈ 2.61 to 9.13 µM) | 3.5 to 12.5 (≈ 9.13 to 32.6 µM) | 3.5 to 12.5 (≈ 9.13 to 32.6 µM) | < 1 | 12.5 to 150 (≈ 32.6 to 391 µM) | 12.5 to 150 (≈ 32.6 to 391 µM)
4 | Cc1c(-c2ccc3c(c2)cc(CNC2CC2)n3C)[nH]c(=O)c(C(=O)O)c1O [Cpd 355, 6-(2-((cyclopropylamino)methyl)-1-methyl-1H-indol-5-yl)-4-hydroxy-5-methyl-2-oxo-1,2-dihydropyridine-3-carboxylic acid] | < 1 | 12.5 to 150 (≈ 34 to 408 µM) | 3.5 to 12.5 (≈ 9.53 to 34 µM) | < 1 | 3.5 to 12.5 (≈ 9.53 to 34 µM) | 3.5 to 12.5 (≈ 9.53 to 34 µM) | < 1 | 12.5 to 150 (≈ 34 to 408 µM) | 12.5 to 150 (≈ 34 to 408 µM)
5 | Cc1c(-c2ccc3c(c2)cc(CNC2(C)CC2)n3C)[nH]c(=O)c(C(=O)O)c1O [Cpd 356, 4-hydroxy-5-methyl-6-(1-methyl-2-((1-methylcyclopropylamino)methyl)-1H-indol-5-yl)-2-oxo-1,2-dihydropyridine-3-carboxylic acid] | < 1 | 3.5 to 12.5 (≈ 9.18 to 32.8 µM) | 3.5 to 12.5 (≈ 9.18 to 32.8 µM) | < 1 | < 1 | 3.5 to 12.5 (≈ 9.18 to 32.8 µM) | < 1 | 12.5 to 150 (≈ 32.8 to 393 µM) | 12.5 to 150 (≈ 32.8 to 393 µM)
6 | CCN(CC)Cc1cc2cc(-c3[nH]c(=O)c(C(=O)O)c(O)c3C)ccc2n1C [Cpd 357, 6-(2-((diethylamino)methyl)-1-methyl-1H-indol-5-yl)-4-hydroxy-5-methyl-2-oxo-1,2-dihydropyridine-3-carboxylic acid] | < 1 | 12.5 to 150 (≈ 32.6 to 391 µM) | 3.5 to 12.5 (≈ 9.13 to 32.6 µM) | 1 to 3.5 (≈ 2.61 to 9.13 µM) | 3.5 to 12.5 (≈ 9.13 to 32.6 µM) | 3.5 to 12.5 (≈ 9.13 to 32.6 µM) | 3.5 to 12.5 (≈ 9.13 to 32.6 µM) | 12.5 to 150 (≈ 32.6 to 391 µM) | 12.5 to 150 (≈ 32.6 to 391 µM)
7 | Cc1c(-c2ccc3c(c2)cc(CN)n3C)[nH]c(=O)c(C(=O)O)c1O [Cpd 358, 6-(2-(aminomethyl)-1-methyl-1H-indol-5-yl)-4-hydroxy-5-methyl-2-oxo-1,2-dihydropyridine-3-carboxylic acid] | 1 to 3.5 (≈ 3.05 to 10.7 µM) | 12.5 to 150 (≈ 38.2 to 458 µM) | 3.5 to 12.5 (≈ 10.7 to 38.2 µM) | 1 to 3.5 (≈ 3.05 to 10.7 µM) | 12.5 to 150 (≈ 38.2 to 458 µM) | 1 to 3.5 (≈ 3.05 to 10.7 µM) | 3.5 to 12.5 (≈ 10.7 to 38.2 µM) | 12.5 to 150 (≈ 38.2 to 458 µM) | 12.5 to 150 (≈ 38.2 to 458 µM)
8 | CCc1c(-c2ccc3c(c2)c(F)c(CNC)n3C)[nH]c(=O)c(C(=O)O)c1O [Cpd 368, 5-ethyl-6-(3-fluoro-1-methyl-2-((methylamino)methyl)-1H-indol-5-yl)-4-hydroxy-2-oxo-1,2-dihydropyridine-3-carboxylic acid] | < 1 | 12.5 to 150 (≈ 33.5 to 402 µM) | 1 to 3.5 (≈ 2.68 to 9.37 µM) | 3.5 to 12.5 (≈ 9.37 to 33.5 µM) | 1 to 3.5 (≈ 2.68 to 9.37 µM) | 1 to 3.5 (≈ 2.68 to 9.37 µM) | 3.5 to 12.5 (≈ 9.37 to 33.5 µM) | 12.5 to 150 (≈ 33.5 to 402 µM) | 12.5 to 150 (≈ 33.5 to 402 µM)
9 | CCNCc1c(F)c2cc(-c3[nH]c(=O)c(C(=O)O)c(O)c3CC)ccc2n1C [Cpd 369, 5-ethyl-6-(2-((ethylamino)methyl)-3-fluoro-1-methyl-1H-indol-5-yl)-4-hydroxy-2-oxo-1,2-dihydropyridine-3-carboxylic acid] | < 1 | 12.5 to 150 (≈ 32.3 to 387 µM) | 1 to 3.5 (≈ 2.58 to 9.03 µM) | 3.5 to 12.5 (≈ 9.03 to 32.3 µM) | 1 to 3.5 (≈ 2.58 to 9.03 µM) | < 1 | 3.5 to 12.5 (≈ 9.03 to 32.3 µM) | 12.5 to 150 (≈ 32.3 to 387 µM) | 12.5 to 150 (≈ 32.3 to 387 µM)
10 | CCc1c(-c2ccc3c(c2)c(F)c(CNC(C)C)n3C)[nH]c(=O)c(C(=O)O)c1O [Cpd 370, 5-ethyl-6-(3-fluoro-2-((isopropylamino)methyl)-1-methyl-1H-indol-5-yl)-4-hydroxy-2-oxo-1,2-dihydropyridine-3-carboxylic acid] | < 1 | 3.5 to 12.5 (≈ 8.72 to 31.1 µM) | < 1 | 3.5 to 12.5 (≈ 8.72 to 31.1 µM) | 1 to 3.5 (≈ 2.49 to 8.72 µM) | 3.5 to 12.5 (≈ 8.72 to 31.1 µM) | 3.5 to 12.5 (≈ 8.72 to 31.1 µM) | 12.5 to 150 (≈ 31.1 to 374 µM) | 12.5 to 150 (≈ 31.1 to 374 µM)
11 | CCc1c(-c2ccc3c(c2)c(F)c(CNC(C)(C)C)n3C)[nH]c(=O)c(C(=O)O)c1O [Cpd 371, 6-(2-((tert-butylamino)methyl)-3-fluoro-1-methyl-1H-indol-5-yl)-5-ethyl-4-hydroxy-2-oxo-1,2-dihydropyridine-3-carboxylic acid] | < 1 | 12.5 to 150 (≈ 30.1 to 361 µM) | 1 to 3.5 (≈ 2.41 to 8.42 µM) | 12.5 to 150 (≈ 30.1 to 361 µM) | 3.5 to 12.5 (≈ 8.42 to 30.1 µM) | 1 to 3.5 (≈ 2.41 to 8.42 µM) | 3.5 to 12.5 (≈ 8.42 to 30.1 µM) | 12.5 to 150 (≈ 30.1 to 361 µM) | 12.5 to 150 (≈ 30.1 to 361 µM)
12 | CCc1cc(C(=O)O)c(=O)[nH]c1-c1ccc2c(ccn2C)c1OCc1ccccc1 [Cpd 372, 6-(4-(benzyloxy)-1-methyl-1H-indol-5-yl)-5-ethyl-2-oxo-1,2-dihydropyridine-3-carboxylic acid] | 12.5 to 150 (≈ 31.1 to 373 µM) | 12.5 to 150 (≈ 31.1 to 373 µM) | 12.5 to 150 (≈ 31.1 to 373 µM) | 12.5 to 150 (≈ 31.1 to 373 µM) | 12.5 to 150 (≈ 31.1 to 373 µM) | 12.5 to 150 (≈ 31.1 to 373 µM) | 12.5 to 150 (≈ 31.1 to 373 µM) | 12.5 to 150 (≈ 31.1 to 373 µM) | 12.5 to 150 (≈ 31.1 to 373 µM)
13 | CCc1c(-c2ccc3c(ccn3C)c2OCc2ccccc2)[nH]c(=O)c(C(=O)O)c1O [Cpd 373, 6-(4-(benzyloxy)-1-methyl-1H-indol-5-yl)-5-ethyl-4-hydroxy-2-oxo-1,2-dihydropyridine-3-carboxylic acid] | 3.5 to 12.5 (≈ 8.36 to 29.9 µM) | 1 to 3.5 (≈ 2.39 to 8.36 µM) | 12.5 to 150 (≈ 29.9 to 358 µM) | 12.5 to 150 (≈ 29.9 to 358 µM) | 12.5 to 150 (≈ 29.9 to 358 µM) | 12.5 to 150 (≈ 29.9 to 358 µM) | 12.5 to 150 (≈ 29.9 to 358 µM) | 12.5 to 150 (≈ 29.9 to 358 µM) | 12.5 to 150 (≈ 29.9 to 358 µM)
14 | CCc1c(-c2ccc3c(ccn3C)c2O)[nH]c(=O)c(C(=O)O)c1O [Cpd 374, 5-ethyl-4-hydroxy-6-(4-hydroxy-1-methyl-1H-indol-5-yl)-2-oxo-1,2-dihydropyridine-3-carboxylic acid] | 12.5 to 150 (≈ 38.1 to 457 µM) | 12.5 to 150 (≈ 38.1 to 457 µM) | 12.5 to 150 (≈ 38.1 to 457 µM) | 12.5 to 150 (≈ 38.1 to 457 µM) | 12.5 to 150 (≈ 38.1 to 457 µM) | 12.5 to 150 (≈ 38.1 to 457 µM) | 12.5 to 150 (≈ 38.1 to 457 µM) | 12.5 to 150 (≈ 38.1 to 457 µM) | 12.5 to 150 (≈ 38.1 to 457 µM)
15 | C=CC1C(O)=C(C(=O)O)C(=O)NC1c1ccc2c(ccn2C)c1 (stereo not drawn) [Cpd 375, 4-hydroxy-6-(1-methyl-1H-indol-5-yl)-2-oxo-5-vinyl-1,2,5,6-tetrahydropyridine-3-carboxylic acid] | < 1 | 12.5 to 150 (≈ 40 to 480 µM) | 12.5 to 150 (≈ 40 to 480 µM) | 1 to 3.5 (≈ 3.2 to 11.2 µM) | 12.5 to 150 (≈ 40 to 480 µM) | 12.5 to 150 (≈ 40 to 480 µM) | 1 to 3.5 (≈ 3.2 to 11.2 µM) | 12.5 to 150 (≈ 40 to 480 µM) | 12.5 to 150 (≈ 40 to 480 µM)

Reference: patent US9409905B2, “Antibacterial compounds and methods for use” (PTC THERAPEUTICS, INC., priority 2011, dated 2016)
